According to patent US7666639B2, “Plant deoxyribonucleoside kinase enzymes and their use” (priority 2002, dated 2010):

Columns and labels:
[1] = system: KY895 cells transformed with pGEX-2T-TOM-dCK/dGKΔC; test: LD100 for growth of transformed KY895 on nucleoside analog plates, pGEX-2T-TOM-dCK/dGKΔC; type: cell-based, E. coli; conditions: transformant pGEX-2T-TOM-dCK/dGKΔC; M9 plates, 24 hours at 37° C.
Description: (§1) Deoxyribonucleoside kinases are of interest as suicide-genes to be used in gene-mediated therapy of cancer or viral infections. In this example the potential of the plant kinases of the invention to convert different nucleoside analogs are compared to that of the human Herpes simplex virus type 1 thymidine kinase (HSV1-TK) in a bacterial test system.
(§2) The experiment was carried out essentially as described by Knecht et al. [Knecht W, Munch-Petersen B and Piskur J: Identification of residues involved in the specificity and regulation of the highly efficient multisubstrate deoxyribonucleoside kinase from Drosophila melanogaster; J. Mol. Biol. 2000 301 827-837]. Briefly, overnight cultures of transformed KY895 were diluted 200-filed in 10% glyercol and 2 μl drops of the dilutions were spotted on M9 minimal medium plates [Ausubel F, Brent R, Kingston R E, Moore D D, Seidman J G, Smith J A & Struhl K (Eds.): Short protocols in molecular biology; 3rd edition (1995) pp. 1-2, Wiley, USA] supplemented with 0.2% glucose, 40 μg/ml isoleucine, 40 μg/ml valine, 100 μg/ml ampicillin and with or without nucleoside analogs. Growth was inspected visually after 24 hours of incubation at 37° C.

[2] = system: KY895 cells transformed with pGEX-2T-AT-dCK/dGK; test: LD100 for growth of transformed KY895 on nucleoside analog plates, pGEX-2T-AT-dCK/dGK; type: cell-based, E. coli
Description: as §1, §2

[3] = system: KY895 cells transformed with pGEX-2T-TOM-ΔNdCK/dGK; test: LD100 for growth of transformed KY895 on nucleoside analog plates, pGEX-2T-TOM-ΔNdCK/dGK; type: cell-based, E. coli
Description: as §1, §2

[4] = system: breast MCF-7 cells, parental; test: Cell proliferation assay - cytotoxicity (XTT), MCF-7 parental; type: cell-based; conditions: Homo sapiens, MCF7, 96-120 hours of drug exposure
Description: (§3) Human breast MCF-7 (ATCC HTB-22) and Glioblastoma U-118-MG (ATCC HTB-15) cancer cells were purchased from the American Type Culture Collection. Cells were cultured in RPMI, E-MEM or D-MEM (Cambrex, Bio Whittaker Cat. No. 12-115-F, 12-611 and 12-741-F) with 10% (v/v) Australian originated fetal calf serum (Cambrex, Bio Whittaker Cat. No. 12-611) and 1 ml/l of Gentamicin (Cambrex, Bio Whittaker Cat. No. 17-518). Cells were grown at 37° C. in a humidified incubator with a gas phase of 5% CO2.
(§4) Cells were plated at densities range of 1.500-3.500 cells/well in 96-well plates coated with Poly-L-lysine (Sigma Cat. No. P6282) Gemcitabine (obtained from Orifarm A/S—DK) was added after 24 hours of incubation at 37° C., 5% CO2, and the medium containing the nucleoside analog. Each experiment was performed in four replicates. Cell survival was assayed after 96-120 hours of drug exposure, by XTT cell proliferation kit (X) kit II, Roche Cat. No. 1 465 015). […] The IC50 value of the investigated drug/compound was calculated as the mean of these experiments using SigmaPlot®) (SPSS Science, Dyrberg Traiding—DK).
(§5) The sensitivity of the untransduced cells, and of the cells transduced with either the retroviral vector alone ore the vector containing plant kinases for Gemcitabine was determined.
(§6) The cytotoxicity (IC50 value) was determined after 96-120 hours of drug exposure.

[5] = system: breast MCF-7 cells transduced with PZG190 (AtdCGK); test: Cell proliferation assay - cytotoxicity (XTT), MCF-7 transduced with PZG190; type: cell-based, Human
Description: (§7) Two constructs were obtained: AtdCGK (PZG190) and TomdCGK (PZG193). LCXSN alone was used as a control.
(§8) The virus containing medium was subsequently used to transduce the cancer cell lines with a MOI of 5.
as §3, with “CO2. […]” for “CO2.”
as §4, with “analog.” for “analog. Each experiment was performed in four replicates. Cell survival was assayed after 96-120 hours of drug exposure, by XTT cell proliferation kit (X) kit II, Roche Cat. No. 1 465 015).”
as §5, §6

[6] = system: KY895 cells transformed with pGEX-2T-HSV-TK; test: LD100 for growth of transformed KY895 on nucleoside analog plates, pGEX-2T-HSV-TK; type: cell-based, E. coli; conditions: transformant pGEX-2T-HSV-TK; M9 plates, 24 hours at 37° C.
Description: as §1, §2

[7] = system: KY895 cells transformed with pGEX-2T-TOM-ΔNdCK/dGKΔC; test: LD100 for growth of transformed KY895 on nucleoside analog plates, pGEX-2T-TOM-ΔNdCK/dGKΔC; type: cell-based, E. coli; conditions: transformant pGEX-2T-TOM-ΔNdCK/dGKΔC; M9 plates, 24 hours at 37° C.
Description: as §1, §2

[8] = system: Glioblastoma U-118-MG cells, parental; test: Cell proliferation assay - cytotoxicity (XTT), U-118-MG parental; type: cell-based; conditions: Homo sapiens, 96-120 hours of drug exposure
Description: as §3, §4, §5, §6

[9] = system: breast MCF-7 cells transduced with PZG193 (TomdCGK); test: Cell proliferation assay - cytotoxicity (XTT), MCF-7 transduced with PZG193; type: cell-based, Human
Description: as §7, §8
as §3, with “CO2. […]” for “CO2.”
as §4, with “analog.” for “analog. Each experiment was performed in four replicates. Cell survival was assayed after 96-120 hours of drug exposure, by XTT cell proliferation kit (X) kit II, Roche Cat. No. 1 465 015).”
as §5, §6

[10] = system: cells transduced with the pLCXSN vector alone; test: Cell proliferation assay - cytotoxicity (XTT), cells transduced with pLCXSN vector alone; type: cell-based, Human; conditions: pLCXSN vector alone versus parental
Description: as §7, §8
as §3, with “CO2. […]” for “CO2.”
as §4, with “analog.” for “analog. Each experiment was performed in four replicates. Cell survival was assayed after 96-120 hours of drug exposure, by XTT cell proliferation kit (X) kit II, Roche Cat. No. 1 465 015).”
as §5, §6

[11] = system: KY895 cells transformed with pGEX-2T-TOM-dCK/dGK; test: LD100 for growth of transformed KY895 on nucleoside analog plates, pGEX-2T-TOM-dCK/dGK; type: cell-based, E. coli
Description: as §1, §2

[12] = system: KY895 cells transformed with pGEX-2T; test: LD100 for growth of transformed KY895 on nucleoside analog plates, pGEX-2T; type: cell-based, E. coli; conditions: transformant pGEX-2T; M9 plates, 24 hours at 37° C.
Description: as §1, §2

[13] = system: Glioblastoma U-118-MG cells transduced with PZG190 (AtdCGK); test: Cell proliferation assay - cytotoxicity (XTT), U-118-MG transduced with PZG190; type: cell-based; conditions: Homo sapiens; U-118-MG PZG190; 96-120 hours of drug exposure
Description: as §7, §8
as §3, with “CO2. […]” for “CO2.”
as §4, with “analog.” for “analog. Each experiment was performed in four replicates. Cell survival was assayed after 96-120 hours of drug exposure, by XTT cell proliferation kit (X) kit II, Roche Cat. No. 1 465 015).”
as §5, §6

[14] = system: Arabidopsis thaliana dNK enzyme (AT-dCK/dGK); test: Deoxyribonucleoside kinase activity in extract of KY895 transformed with pGEX-2T-AT-dCK/dGK; type: biochemical; conditions: for ability to phosphorylate the deoxyribonucleoside (in words): pGEX-2T-AT-dCK/dGK
Description: (§9) Transformed KY895 strains were grown to an OD600 nm of 0.5-0.6 in LB/Ampicillin (100 μg/ml) medium at 37° C., and protein expression was induced by addition of 100 μM IPTG. The cells were further grown for 4 hours at 25° C. and subsequently harvested by centrifugation.
(§10) Pellets were stored at −80° C. until activity testing. Pellets were submitted to brief sonification in extraction buffer (50 mM Tris/HCl pH 7.5, 1 mM DTT, 10% (v/v) glycerol, 1% (v/v) Triton X-100, protease inhibitor cocktail (Complete™ from Roche Diagnostics).
(§11) Deoxyribonucleoside kinase activities were determined in the KY895 extracts by initial velocity measurements based on four time samples by the DE-81 filter paper assay using tritium-labelled nucleoside substrates. 4 to 20 μg extracts were used in the assays.
(§12) The four natural deoxyribonucleosides were tested at a fixed concentration of 100 μM. The highest specific activity in each extract was set to 100%.

[15] = system: tomato dNK enzyme (TOM-dCK/dGK); test: Deoxyribonucleoside kinase activity in extract of KY895 transformed with pGEX-2T-TOM-dCK/dGK; type: biochemical, Lycopersicum esculentum; conditions: for ability to phosphorylate the deoxyribonucleoside (in words): pGEX-2T-TOM-dCK/dGK
Description: as §9, §10, §11, §12

[16] = system: C-terminally deleted tomato dNK enzyme (TOM-dCK/dGKΔC); test: Deoxyribonucleoside kinase activity in extract of KY895 transformed with pGEX-2T-TOM-dCK/dGKΔC; type: biochemical, Lycopersicum esculentum; conditions: for Deoxyribonucleoside kinase activity (relative): highest specific activity in extract = 100%
Description: (§13) The E. coli strain KY895 (F^−, tdk-1, ilv) [Knecht W, Munch-Petersen B and Piskur J: Identification of residues involved in the specificity and regulation of the highly efficient multisubstrate deoxyribonucleoside kinase from Drosophila melanogaster; J. Mol. Biol. 2000 301 827-837] was transformed by various expression plasmids using standard techniques. Transformed KY895 strains were grown to an OD600 nm of 0.5-0.6 in LB/Ampicillin (100 μg/ml) medium at 37° C., and protein expression was induced by addition of 100 μM IPTG. The cells were further grown for 4 hours at 25° C. and subsequently harvested by centrifugation.
as §10
(§14) Deoxyribonucleoside kinase activities were determined in the KY895 extracts by initial velocity measurements based on four time samples by the DE-81 filter paper assay using tritium-labelled nucleoside substrates. 4 to 20 μg extracts were used in the assays. The assay was done as described by Munch-Petersen et al. [Munch-Petersen, B., Knecht, W, Lenz, C., Sondergaard, L. & Piskur, J: Functional expression of a multisubstrate deoxyribonucleoside kinase from Drosophila melanogaster and its C-terminal deletion mutants; J. Biol. Chem. 2000 275 6673-6679].
(§15) The protein concentration was determined according to Bradford with BSA as standard protein [Bradford M M: A rapid and sensitive method for the quantitation of microgram quantities of protein utilizing the principle of protein-dye binding; Anal. Biochem. 1976 72 248-254]. SDS-PAGE was done according to the procedure of Laemmli [Laemmli U K: Cleavage of structural proteins during the assembly of the head of bacteriophage T4; Nature 1970 227 680-685], and proteins were visualized by Coomassie staining to verify recombinant protein expression.
as §12

[17] = system: N-terminally deleted tomato dNK enzyme (TOM-ΔNdCK/dGK); test: Deoxyribonucleoside kinase activity in extract of KY895 transformed with pGEX-2T-TOM-ΔNdCK/dGK; type: biochemical, Lycopersicum esculentum; conditions: for ability to phosphorylate the deoxyribonucleoside (in words): pGEX-2T-TOM-ΔNdCK/dGK
Description: as §13, §10, §14, §15, §12

[18] = extract of pGEX-2T-TOM-dCK/dGKΔC transformant, substrate 100 μM

Nc1ccn([C@@H]2O[C@H](CO)[C@@H](O)C2(F)F)c(=O)n1 [dFdC, 2′,2′-difluorodeoxycytidine]
LD100 for growth of transformed KY895 cells [1]: 100 µM
LD100 fold lower than that of HSV1-TK ([2]; KY895 with AT-dCK/dGK versus HSV1-TK): 10000 fold
LD100 for growth of transformed KY895 cells ([2]; transformant pGEX-2T-AT-dCK/dGK, M9 plates, 24 hours at 37° C.): 0.01 µM
killed at fold lower concentrations than cells transformed with pGEX-2T-HSV-TK or pGEX-2T ([3]; KY895 with expression plasmid for TOM-ΔNdCK/dGK): 10 fold
LD100 for growth of transformed KY895 cells ([3]; transformant pGEX-2T-TOM-ΔNdCK/dGK, M9 plates, 24 hours at 37° C.): 10 µM
IC50 [4]: 3120 nM
IC50 ([5]; Homo sapiens, MCF7, MCF-7 PZG190, 96-120 hours of drug exposure): 500 nM
Sensitivity factor ([5]; MCF-7 PZG190 compared to the parental cell line): 6-fold
LD100 for growth of transformed KY895 cells [6]: 100 µM
LD100 for growth of transformed KY895 cells [7]: 100 µM
IC50 [8]: 6.2 nM
IC50 ([9]; Homo sapiens, MCF7, MCF-7 PZG193, 96-120 hours of drug exposure): 402 nM
Sensitivity factor ([9]; MCF-7 PZG193 compared to the parental cell line): 8-fold
difference in sensitivity between the parental cell line and cells transduced with the pLCXSN vector alone [10]: less than 1 fold
killed at fold lower concentrations than cells transformed with pGEX-2T-HSV-TK or pGEX-2T ([11]; KY895 with expression plasmid for TOM-dCK/dGK): 10 fold
LD100 for growth of transformed KY895 cells ([11]; transformant pGEX-2T-TOM-dCK/dGK, M9 plates, 24 hours at 37° C.): 10 µM
LD100 for growth of transformed KY895 cells [12]: 100 µM
IC50 [13]: 0.3 nM

Nc1nc2c(ncn2[C@H]2C[C@H](O)[C@@H](CO)O2)c(=O)[nH]1 [dGuo, deoxyguanosine]
Deoxyribonucleoside kinase activity (relative) ([14]; extract of pGEX-2T-AT-dCK/dGK transformant, substrate 100 μM, highest specific activity in extract = 100%): 91%
ability to phosphorylate the deoxyribonucleoside (in words) [14]: able to phosphorylate
specific activity corresponding to 100% ([15]; extract of pGEX-2T-TOM-dCK/dGK transformant, substrate 100 μM): (3.3) mU/mg
Deoxyribonucleoside kinase activity (relative) ([15]; extract of pGEX-2T-TOM-dCK/dGK transformant, substrate 100 μM, highest specific activity in extract = 100%): 100%
ability to phosphorylate the deoxyribonucleoside (in words) [15]: able to phosphorylate
Deoxyribonucleoside kinase activity (relative) [16, 18]: 74%
specific activity corresponding to 100% ([17]; extract of pGEX-2T-TOM-ΔNdCK/dGK transformant, substrate 100 μM): (0.32) mU/mg
Deoxyribonucleoside kinase activity (relative) ([17]; extract of pGEX-2T-TOM-ΔNdCK/dGK transformant, substrate 100 μM, highest specific activity in extract = 100%): 100%
ability to phosphorylate the deoxyribonucleoside (in words) [17]: able to phosphorylate

Cc1cn([C@H]2C[C@H](O)[C@@H](CO)O2)c(=O)[nH]c1=O [dThd, thymidine]
ability to phosphorylate the deoxyribonucleoside (in words) [14]: not
ability to phosphorylate the deoxyribonucleoside (in words) [15]: not
specific activity corresponding to 100% [16, 18]: (0.27) mU/mg
Deoxyribonucleoside kinase activity (relative) [16, 18]: 100%
substrate conversion (in words) ([16]; pGEX-2T-TOM-dCK/dGKΔC): fastest converted substrate
ability to phosphorylate the deoxyribonucleoside (in words) [17]: not
